Source: PubChem BioAssay (NCI)
Several values for one entry are separate records, joined by “and”; a condition that tells them apart may be missing. Equal values may be shown once.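 Compound exposure: 48 hours, 5 concentrations, 96-well plates. Here, GI50 denotes the concentration required for 50% inhibition of growth. At the TGI there is no net growth.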

What was measured:
Experiment in all cases: NCI tumour cell line growth inhibition, 48 h
[1] = system: SK-MEL-5 melanoma
[2] = system: HCC-2998 colon
[3] = system: SK-MEL-28 melanoma
[4] = system: TK-10 renal
[5] = system: DMS 273 small cell lung
[6] = system: MALME-3M melanoma
[7] = system: UO-31 renal
[8] = system: HS 578T breast
[9] = system: BT-549 breast
[10] = system: HOP-18 NSCLC

Structure (SMILES)	TGI [1]	TGI [2]	TGI [3]	TGI [4]	TGI [5] [µM]	TGI [6]	TGI [7]	GI50 [1]	GI50 [2]	GI50 [3]	GI50 [4]	TGI [8]	GI50 [9]	TGI [9]	GI50 [5]	GI50 [6]	GI50 [7]	TGI [10]	GI50 [8]	GI50 [10] [µM]
O=S(=O)(C1=CC(S(=O)(=O)c2ccccc2)CN(Cc2ccccc2)C1c1cccc2ccccc12)c1ccccc1 (stereo not drawn)	> 69 µM	> 69 µM	> 69 µM	> 69 µM	> 69	> 69 µM	> 69 µM	–	–	–	–	–	–	–	–	–	–	–	–	–
Cc1ccc(C)c(NC(=O)CC2Sc3ccccc3NC2=O)c1 (stereo not drawn)	43.2 µM and > 100 µM	34.8 µM and > 100 µM	54.7 µM and > 100 µM	35.5 µM and > 87.3 µM	> 100	48.2 µM and > 100 µM	23 µM and 55.7 µM	30.3 µM and 91.6 µM	19 µM and 61.9 µM	34.9 µM and > 100 µM	18.3 µM and 41.9 µM	> 75.2 µM	19.2 µM and 39 µM	82.4 µM and > 95.8 µM	23.1 µM and 97 µM	27.8 µM and 64.8 µM	14.5 µM and 30 µM	36 µM and 70 µM	–	–
Cc1ccc(S(=O)(=O)N/N=C2\CCCCC23CCC(=O)NC3)cc1 (stereo not drawn)	> 100 µM	> 100 µM	> 100 µM	> 100 µM	> 100	> 100 µM	> 100 µM	–	–	–	–	–	–	–	–	–	–	> 100 µM	–	–
O=C(Nc1ccc(C(F)(F)F)cc1[N+](=O)[O-])C(=O)C1NC(=S)NC1=O (stereo not drawn)	> 100 µM	> 100 µM	> 100 µM	> 100 µM	> 100	> 100 µM	> 100 µM	–	–	–	–	–	–	–	–	–	–	> 100 µM	–	–
COc1ccc(NC(=O)CC/C(CC(=O)c2ccco2)=N/NC(=O)C(N)=O)cc1	> 100 µM	> 100 µM	> 100 µM	> 100 µM	> 100	> 100 µM	> 100 µM	–	–	–	–	–	–	–	–	–	–	> 100 µM	–	–
CC(=O)Oc1c(C)c(-c2ccccc2)c(C)c(-c2ccccc2)c1C(=S)c1ccccc1	> 100 µM	> 100 µM	> 100 µM	> 100 µM	–	> 100 µM	> 100 µM	–	–	–	–	–	–	–	–	–	–	> 100 µM	–	–
COc1cc(NS(=O)(=O)c2ccc(C)cc2)c2nccnc2c1	63.7 µM	> 100 µM	> 100 µM	> 100 µM	> 100	> 100 µM	> 100 µM	–	–	–	–	–	–	–	–	–	–	> 100 µM	–	–
O=C1C=C(Nc2ccccc2C(=O)CC(=O)C(=O)Nc2cccc([N+](=O)[O-])c2)c2ccccc2C1=O	26.3 µM	> 100 µM	> 100 µM	> 100 µM	> 100	46.7 µM	> 100 µM	–	–	–	–	–	–	–	–	–	–	–	–	–
CCCC1(CC(=O)O)OCCc2c1[nH]c1ccccc21 (stereo not drawn)	> 100 µM	> 100 µM	> 100 µM	> 100 µM	> 100	> 100 µM	> 100 µM	–	–	–	–	–	–	–	–	–	–	> 100 µM	–	–
COC(=O)C(=O)CC(=O)CCn1[nH]c(=O)c(Cl)c(Cl)c1=O	> 100 µM	> 100 µM	> 100 µM	> 100 µM	> 100	> 100 µM	> 100 µM	–	–	–	–	–	–	–	–	–	–	–	–	–
CCOc1cccc(/C=N/NC(=O)c2cccc(Nc3ccnc(C(F)(F)F)c3)c2)c1O	7.84 µM	> 100 µM	36.6 µM	83.1 µM	–	18.9 µM	26.2 µM	0.676 µM	1.45 µM	2.31 µM	1.57 µM	72.7 µM	1.44 µM	36.5 µM	–	1.82 µM	0.717 µM	–	5.53 µM	–
Cc1ccc(S(=O)(=O)OC2CC=CC2)cc1	> 100 µM	> 100 µM	> 100 µM	> 100 µM	> 100	> 100 µM	> 100 µM	–	–	–	–	–	–	–	–	–	–	> 100 µM	–	–
O=C1N/C(=C\[N+](=O)[O-])c2ccccc21	> 100 µM	> 100 µM	> 100 µM	> 100 µM	> 100	> 100 µM	> 100 µM	–	–	–	–	–	–	–	–	–	–	> 100 µM	–	–
CC1(O)C(C)(O)C2(C)O[Te]3(OC12C)OC1(C)C(C)(O)C(C)(O)C1(C)O3 (stereo not drawn)	32.7 µM	> 100 µM	38.1 µM	> 100 µM	67.3	> 100 µM	87.5 µM	–	–	–	–	–	–	–	–	–	–	–	–	–
CCCCCCCCCCCCCCCCCCOC[C@H](COP(=O)(O)O[C@H]1[C@H](O)[C@@H](O)[C@H](O)C[C@H]1O)OC	> 100 µM and 32.3 µM	> 100 µM and 20.5 µM	> 100 µM and 33.8 µM	> 100 µM and 20.7 µM	–	> 100 µM and 33.9 µM	> 100 µM and 22.1 µM	> 100 µM and 18 µM	24.2 µM and 6.97 µM	–	41.8 µM and 7.74 µM	> 100 µM and 34.8 µM	> 100 µM and 15.9 µM	> 100 µM and 30.4 µM	–	> 100 µM and 18.3 µM	> 100 µM	–	> 100 µM and 17.9 µM	–
O=C(O)c1ccc(CN2CCC(CN[C@@H]3C[C@H]3c3ccccc3)CC2)cc1	> 100 µM	> 100 µM	> 100 µM	> 100 µM	–	> 100 µM	> 100 µM	> 100 µM	> 100 µM	> 100 µM	> 100 µM	> 100 µM	> 100 µM	> 100 µM	–	> 100 µM	> 100 µM	–	> 100 µM	–
CCOC(=O)[CH-]C(=O)C12CC3CC(CC(C3)C1)C2.CCOC(=O)[CH-]C(=O)C12CC3CC(CC(C3)C1)C2.CC[O-].CC[O-].[Ti+4]	> 100 µM	–	> 100 µM	> 100 µM	> 100	> 100 µM	> 100 µM	> 100 µM	–	> 100 µM	> 100 µM	–	–	–	> 100 µM	> 100 µM	> 100 µM	> 100 µM	–	> 100
COC(=O)c1ccc2[nH]c(O)c(C(=Nc3ccc(N(C)C(=O)CN4CCN(C)CC4)cc3)c3ccc4c(c3)OCO4)c2c1	2.17 µM	2.69 µM	2.92 µM	3.14 µM	–	2.29 µM	3.71 µM	0.878 µM	1 µM	1.21 µM	1.36 µM	2.56 µM	1.06 µM	2.47 µM	–	0.895 µM	1.3 µM	–	0.144 µM	–
C#CC1(O)C(COP(=O)(O)OCC(COP(=O)(O)OCC2OC(n3cc(F)c(=O)[nH]c3=O)CC2O)OCCCCCCCCCCCCCCCCCC)OC(n2ccc(N)nc2=O)C1O (stereo not drawn)	9.29 µM	1.26 µM	> 100 µM	> 29 µM	–	5.36 µM	–	0.275 µM	0.0752 µM	7.4 µM	0.241 µM	> 52.8 µM	0.155 µM	5.41 µM	–	0.102 µM	0.461 µM	–	2.16 µM	–
O=C(Nc1ccc(Cl)cc1)C1C(=O)C(=O)N(c2ccc(Cl)cc2)C1=O (stereo not drawn)	> 100 µM	–	> 100 µM	> 100 µM	> 100	> 100 µM	> 100 µM	–	–	–	–	–	–	–	–	–	–	> 100 µM	–	–
